This passage reports IC50 and EC50 results from patent US20230183216A1, “PYRIDIZIN-3(2H)-ONE DERIVATIVES” (Gilead Sciences, Inc., priority 2021, published 2023).

One experiment addresses T1, PARP7 (Homo sapiens, UniProt Q7Z3E1).
T1 sequence (Q7Z3E1 1-657): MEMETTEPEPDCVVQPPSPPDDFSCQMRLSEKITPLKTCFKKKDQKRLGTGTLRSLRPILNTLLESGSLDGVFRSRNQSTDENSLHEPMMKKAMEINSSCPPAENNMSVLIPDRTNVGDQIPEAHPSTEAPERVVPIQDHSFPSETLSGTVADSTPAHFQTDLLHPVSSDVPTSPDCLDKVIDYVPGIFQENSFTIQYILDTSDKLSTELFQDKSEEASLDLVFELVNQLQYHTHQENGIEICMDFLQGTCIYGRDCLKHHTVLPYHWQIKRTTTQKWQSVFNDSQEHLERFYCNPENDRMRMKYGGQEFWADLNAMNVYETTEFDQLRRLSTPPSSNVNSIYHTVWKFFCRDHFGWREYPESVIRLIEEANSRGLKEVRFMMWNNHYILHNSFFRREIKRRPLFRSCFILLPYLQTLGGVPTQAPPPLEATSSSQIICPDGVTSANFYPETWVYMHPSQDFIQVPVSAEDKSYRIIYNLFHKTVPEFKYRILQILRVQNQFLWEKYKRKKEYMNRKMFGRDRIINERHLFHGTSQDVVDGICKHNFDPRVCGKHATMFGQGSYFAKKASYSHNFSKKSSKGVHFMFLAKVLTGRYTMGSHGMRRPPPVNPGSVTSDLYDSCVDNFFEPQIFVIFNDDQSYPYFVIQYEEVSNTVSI
Nature of the experiment: biochemical.

Experiment [1] concerns STAT1 (phosphorylated at Tyr701) in NCI-H1373 cells. Nature of the experiment: Phospho-STAT1 (Tyr701) LANCE Ultra TR-FRET Detection Assay. Format: cell-based. The following applies: Homo sapiens, 48 hours, induction of pSTAT1, normalized to 10 uM positive control and DMSO, 4-parameter fit, read-out: NH1373 pSTAT1 EC50. On the procedure:
Phospho-STAT1 (Tyr701 LANCE Ultra TR-FRET Detection Assay
LANCE Ultra phospho-STAT1 (Tyr701) kits available from Perkin Elmer are designed for the detection of phosphorylated STAT1 in cell lysates using a simple, homogeneous LANCE Ultra sandwich assay (Cat. #TRF4028M). This assay is intended for assessing compound induction of endogenous levels of cellular STAT1 (phosphorylated at Tyr701) in NCI-H1373 cells. The NCI-H1373 cells are cultured in RPMI 1640 media containing 10% heat inactivated FBS, GlutaMAX, 1% Penicillin-Streptomycin. An Echo acoustic liquid handler is used to transfer 60 nanoliters of compound dilutions using the Echo Qualified, 384-well polypropylene microplate clear flat bottom source plates into a Greiner (#781080) cell culture microplate. NCI-H1373 cells are seeded into these compound-spotted culture plates at 30,000 cells/well in a 60 uL volume in growth media. The plates are incubated in a 5% CO2 humidified incubator at 37° C. for 48 hours. […] Briefly, 20 μL of supplemented lysis buffer is added to each well and allowed to shake for 1 hour at 400 rpm. Next, 5 ul of remixed antibody solutions (vol/vol) prepared in detection buffer are added to each well and allowed to incubate at room temperature overnight. After spinning the plate down at 300 rpm for […], the plate is read on an EnVision plate reader set up for Eu3+ Cryptate and fluorescence emission is measured at two different wavelengths (665 nm and 620 nm).
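For IC50 in this document: MSD light signal quantifying PARP7 captured by a plate-immobilized probe, read after 1.5 h equilibration plus 1.5 h with SULFO-TAG anti-GST antibody at room temperature.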

`O=C(CC[C@@H]1CCCCN1c1cc(C(F)(F)F)c(=O)[nH]n1)N1CCN(c2ncc(C(F)(F)F)cn2)CC1` [Example 31, (S)-6-(2-(3-oxo-3-(4-(5-(trifluoromethyl)pyrimidin-2-yl)piperazin-1-yl)propyl)piperidin-1-yl)-4-(trifluoromethyl)pyridazin-3(2H)-one] registered an IC50 against PARP7 of 0.000671 µM. Besides, the EC50 in experiment [1] was determined as 0.172 µM.

In turn, `[2H]C1([2H])N(C(=O)CCCCc2cc(C(F)(F)F)c(=O)[nH]n2)C([2H])([2H])C([2H])([2H])N(c2ncc(C(F)(F)F)cn2)C1([2H])[2H]` [Example 52, 3-[5-[2,2,3,3,5,5,6,6-octadeuterio-4-[5-(trifluoromethyl)pyrimidin-2-yl]piperazin-1-yl]-5-oxo-pentyl]-5-(trifluoromethyl)-1H-pyridazin-6-one] came in with an IC50 against PARP7 of 0.000359 µM. Moreover, the EC50 in experiment [1] worked out at 0.209 µM.

With `O=C(CCCN(CC(F)F)c1cc(C(F)(F)F)c(=O)[nH]n1)N1CCN(c2ncc(C(F)(F)F)cn2)CC1` [Example 56, 3-[2,2-difluoroethyl-[4-oxo-4-[4-[5-(trifluoromethyl)pyrimidin-2-yl]piperazin-1-yl]butyl]amino]-5-(trifluoromethyl)-1H-pyridazin-6-one], on PARP7, inhibition was half-maximal at 0.000877 µM (IC50). The EC50 in experiment [1] turned out to be 0.452 µM.

In turn, `O=C(CCCCc1n[nH]c(=O)c2c1CCCC2)N1CCN(c2ncc(C(F)(F)F)cn2)CC1` [Example 69, 4-[5-oxo-5-[4-[5-(trifluoromethyl)pyrimidin-2-yl]piperazin-1-yl]pentyl]-5,6,7,8-tetrahydro-2H-phthalazin-1-one] had an IC50 against PARP7 of 0.000755 µM. Besides, the EC50 in experiment [1] was 0.16 µM.

For the compound `CN(c1cccc(C(=O)N2CCN(c3ncc(C(F)(F)F)cn3)CC2)c1)c1cc(C(F)(F)F)c(=O)[nH]n1` [Example 29, 6-(methyl(3-(4-(5-(trifluoromethyl)pyrimidin-2-yl)piperazine-1-carbonyl)phenyl)amino)-4-(trifluoromethyl)pyridazin-3(2H)-one], on PARP7, the IC50 was 0.0306 µM. The EC50 in experiment [1] is not below 10 µM.

In the case of `O=C(CC[C@@H]1CCCN1c1cc(C(F)(F)F)c(=O)[nH]n1)N1CCN(c2ncc(C(F)(F)F)cn2)CC1` [Example 27, (S)-6-(2-(3-oxo-3-(4-(5-(trifluoromethyl)pyrimidin-2-yl)piperazin-1-yl)propyl)pyrrolidin-1-yl)-4-(trifluoromethyl)pyridazin-3(2H)-one], at PARP7, the IC50 turned out to be 0.000212 µM. Also, the EC50 in experiment [1] turned out to be 0.00931 µM.

On to `O=C(N1CCN(c2ncc(C(F)(F)F)cn2)CC1)C1(CCCc2cc(C(F)(F)F)c(=O)[nH]n2)CC1` [Example 9, 4-(trifluoromethyl)-6-(3-(1-(4-(5-(trifluoromethyl)pyrimidin-2-yl)piperazine-1-carbonyl)cyclopropyl)propyl)pyridazin-3(2H)-one], for which the IC50 on PARP7 worked out at 0.00144 µM. For the same compound, the EC50 in experiment [1] came out at 1.8 µM.

As to `N#Cc1ccc(N2CCN(C(=O)CCCNc3cc(C(F)(F)F)c(=O)[nH]n3)CC2)nc1` [Example 54, 6-[4-[4-[[6-oxo-5-(trifluoromethyl)-1H-pyridazin-3-yl]amino]butanoyl]piperazin-1-yl]pyridine-3-carbonitrile], the IC50 against PARP7 was 0.000408 µM. Also, the EC50 in experiment [1] amounted to 0.691 µM.

Regarding `CCCN(CCCC(=O)N1CCN(c2ncc(C(F)(F)F)cn2)CC1)c1cc(C(F)(F)F)c(=O)[nH]n1` [Example 37, 6-((4-oxo-4-(4-(5-(trifluoromethyl)pyrimidin-2-yl)piperazin-1-yl)butyl)(propyl)amino)-4-(trifluoromethyl)pyridazin-3(2H)-one], the IC50 against PARP7 was 0.00028 µM. For the same compound, the EC50 in experiment [1] was 0.134 µM.

In the case of `O=C(CCC1Cc2ccccc2N1c1cc(C(F)(F)F)c(=O)[nH]n1)N1CCN(c2ncc(C(F)(F)F)cn2)CC1` (centres unmarked) [Example 47, 3-[2-[3-oxo-3-[4-[5-(trifluoromethyl)pyrimidin-2-yl]piperazin-1-yl]propyl]indolin-1-yl]-5-(trifluoromethyl)-1H-pyridazin-6-one], the IC50 against PARP7 came to 0.000232 µM. Besides, the EC50 in experiment [1] worked out at 0.179 µM.

Consider `O=C(CCc1cc(C(F)(F)F)c(=O)[nH]n1)N1CCN(c2ncc(C(F)(F)F)cn2)CC1` [Example 7, 6-(3-oxo-3-(4-(5-(trifluoromethyl)pyrimidin-2-yl)piperazin-1-yl)propyl)-4-(trifluoromethyl)pyridazin-3(2H)-one], for which the IC50 against PARP7 turned out to be 0.000958 µM. The EC50 in experiment [1] was 0.349 µM.

The compound `O=C([C@H]1CN(Cc2cc(C(F)(F)F)c(=O)[nH]n2)CCO1)N1CCN(c2ncc(C(F)(F)F)cn2)CC1` [Example 75, 5-(trifluoromethyl)-3-[[(2R)-2-[4-[5-(trifluoromethyl)pyrimidin-2-yl]piperazine-1-carbonyl]morpholin-4-yl]methyl]-1H-pyridazin-6-one] yielded an IC50 at PARP7 of 0.00512 µM. In experiment [1], the EC50 was found to be 1.35 µM.

Compound `O=C(c1cccc(Nc2cc(C(F)(F)F)c(=O)[nH]n2)c1)N1CCN(c2ncc(C(F)(F)F)cn2)CC1` [Example 18, 4-(trifluoromethyl)-6-((3-(4-(5-(trifluoromethyl)pyrimidin-2-yl)piperazine-1-carbonyl)phenyl)amino)pyridazin-3(2H)-one] had an IC50 on PARP7 of 0.0327 µM. Further, the EC50 in experiment [1] is not below 10 µM.

`O=C([C@@H]1CN(Cc2cc(C(F)(F)F)c(=O)[nH]n2)CCO1)N1CCN(c2ncc(C(F)(F)F)cn2)CC1` [Example 74, 5-(trifluoromethyl)-3-[[(2S)-2-[4-[5-(trifluoromethyl)pyrimidin-2-yl]piperazine-1-carbonyl]morpholin-4-yl]methyl]-1H-pyridazin-6-one] returned an IC50 on PARP7 of 0.00201 µM. Besides, the 50% effective concentration (EC50) in experiment [1] turned out to be 1.79 µM.

`O=C([C@@H]1CCc2ccccc2N1c1cc(C(F)(F)F)c(=O)[nH]n1)N1CCN(c2ncc(C(F)(F)F)cn2)CC1` [Example 58, 5-(trifluoromethyl)-3-[(2S)-2-[4-[5-(trifluoromethyl)pyrimidin-2-yl]piperazine-1-carbonyl]-3,4-dihydro-2H-quinolin-1-yl]-1H-pyridazin-6-one] showed an IC50 at PARP7 of 0.00436 µM. Also, the EC50 in experiment [1] is 2.11 µM.

`CC(CCCC(=O)N1CCN(c2ncc(C(F)(F)F)cn2)CC1)c1cc(C(F)(F)F)c(=O)[nH]n1` (centres unmarked) [Example 8, 6-(6-oxo-6-(4-(5-(trifluoromethyl)pyrimidin-2-yl)piperazin-1-yl)hexan-2-yl)-4-(trifluoromethyl)pyridazin-3(2H)-one] came in with an IC50 against PARP7 of 0.00139 µM. The EC50 in experiment [1] was determined as 0.708 µM.

In the case of `O=C([C@@H]1CCN1c1cc(C(F)(F)F)c(=O)[nH]n1)N1CCN(c2ncc(C(F)(F)F)cn2)CC1` [Example 55, 5-(trifluoromethyl)-3-[(2S)-2-[4-[5-(trifluoromethyl)pyrimidin-2-yl]piperazine-1-carbonyl]azetidin-1-yl]-1H-pyridazin-6-one], inhibition on PARP7 was half-maximal at 0.000339 µM (IC50). Also, the EC50 in experiment [1] amounted to 0.282 µM.

Take `O=C(CCCCc1cc(C(F)(F)F)c(=O)[nH]n1)N1CCN(c2ncc(C(F)(F)F)cn2)CC1` [Example 1, 6-(5-oxo-5-(4-(5-(trifluoromethyl)pyrimidin-2-yl)piperazin-1-yl)pentyl)-4-(trifluoromethyl)pyridazin-3(2H)-one]: on PARP7, the IC50 was 0.000288 µM. In addition, the EC50 in experiment [1] was found to be 0.0606 µM.

On to `O=C([C@@H]1CN(c2cc(C(F)(F)F)c(=O)[nH]n2)CCO1)N1CCN(c2ncc(C(F)(F)F)cn2)CC1` [Example 43, (S)-4-(trifluoromethyl)-6-(2-(4-(5-(trifluoromethyl)pyrimidin-2-yl)piperazine-1-carbonyl)morpholino)pyridazin-3(2H)-one], for which, on PARP7, the IC50 was determined as 0.0201 µM. The EC50 in experiment [1] was not below 10 µM.

In general, IC50 refers to the midpoint of a concentration-inhibition curve. The low end stands for greater potency in that assay, the high end for weaker potency in that assay. As a reminder, the EC50 is the midpoint of the concentration-response curve.
